Molecules are shown by their SMILES.

In the first experiment the test system is HIV in the HTLV-1 transformed cell line MT-4. In words: organism not typed. The experiment is classed as cell-based. The note with it: MT4, 96 h, MT-4 cells; luciferase/cell titer glo readout after 96 hours; 10 point dose response. In general terms: In ATP-based viability assays light output follows the ATP content of the culture.
As a reminder, the IC50 is the concentration needed to halve the response being measured. High values mean a need for much substance, low ones inhibition by little substance. For `COc1ccc(C(=O)N2Cc3c(C)c(-c4cc(F)c5c(c4C)CCCO5)c([C@H](OC(C)(C)C)C(=O)O)c(C)c3C2)cc1` (atropisomer, axis not shown; (M)) [Example 196, (S)-2-(tert-butoxy)-2-((M)-6-(8-fluoro-5-methylchroman-6-yl)-2-(4-methoxybenzoyl)-4,7-dimethylisoindolin-5-yl)acetic acid], the IC50 came to 2 nM.

As to `Cc1ccc(-c2c(C)c3c(c(C)c2[C@H](OC(C)(C)C)C(=O)O)CN(C(=O)CC(C)(C)C)C3)cc1` [Example 110, (S)-2-(tert-butoxy)-2-(2-(3,3-dimethylbutanoyl)-4,7-dimethyl-6-(p-tolyl)isoindolin-5-yl)acetic acid], the IC50 worked out at 6 nM.

In turn, `Cc1c(-c2c(C)c3c(c(C)c2[C@H](OC(C)(C)C)C(=O)O)CN(c2nc4cc(F)ccc4o2)C3)cc(F)c2c1CCCO2` (atropisomer, axis not shown; (M)) [Example 204, (S)-2-(tert-butoxy)-2-((M)-6-(8-fluoro-5-methylchroman-6-yl)-2-(5-fluorobenzo[d]oxazol-2-yl)-4,7-dimethylisoindolin-5-yl)acetic acid] came in with an IC50 of 665 nM.

In the case of `Cc1ccc(-c2c(C)c3c(c(C)c2[C@H](OC(C)(C)C)C(=O)O)CN(C(=O)c2ccc(C)nc2)C3)cc1` [Example 283, (S)-2-(tert-butoxy)-2-(4,7-dimethyl-2-(6-methylnicotinoyl)-6-(p-tolyl)isoindolin-5-yl)acetic acid], half-maximal inhibition (IC50) was put at 13 nM.

Consider `Cc1ccc(-c2c(C)c3c(c(C)c2[C@H](OC(C)(C)C)C(=O)O)CN(Cc2cccc4c2OCCO4)C3)cc1` [Example 125, (S)-2-(tert-butoxy)-2-(2-((2,3-dihydrobenzo[b][1,4]dioxin-5-yl)methyl)-4,7-dimethyl-6-(p-tolyl)isoindolin-5-yl)acetic acid], for which the IC50 was found to be 15 nM.

Turning to `COc1cc(C(=O)N2Cc3c(C)c(-c4ccc(C)cc4)c([C@H](OC(C)(C)C)C(=O)O)c(C)c3C2)ccc1F` [Example 251, (S)-2-(tert-butoxy)-2-(2-(4-fluoro-3-methoxybenzoyl)-4,7-dimethyl-6-(p-tolyl)isoindolin-5-yl)acetic acid], the IC50 came to 3 nM.

As for `Cc1ccc(-c2c(C)c3c(c(C)c2[C@H](OC(C)(C)C)C(=O)O)CN(C(=O)c2ccn(C)n2)C3)cc1` [Example 240, (S)-2-(tert-butoxy)-2-(4,7-dimethyl-2-(1-methyl-1H-pyrazole-3-carbonyl)-6-(p-tolyl)isoindolin-5-yl)acetic acid], 121 nM corresponded to half-maximal inhibition (IC50).

`Cc1ccc(-c2c(C)c3c(c(C)c2[C@H](OC(C)(C)C)C(=O)O)CN(C(=O)C2CCC(F)(F)C2)C3)cc1` (stereo partly drawn) [Example 113, (2S)-2-(tert-butoxy)-2-(2-(3,3-difluorocyclopentanecarbonyl)-4,7-dimethyl-6-(p-tolyl)isoindolin-5-yl)acetic acid] came in with an IC50 of 10 nM.

With `Cc1c(-c2c(C)c3c(c(C)c2[C@H](OC(C)(C)C)C(=O)O)CN(C(=O)c2cc(F)cc(F)c2)C3)cc(F)c2c1CCCO2` (atropisomer, axis not shown; (M)) [Example 170, (S)-2-(tert-butoxy)-2-((M)-2-(3,5-difluorobenzoyl)-6-(8-fluoro-5-methylchroman-6-yl)-4,7-dimethylisoindolin-5-yl)acetic acid], the IC50 came out at 2 nM.

On to `COc1ccc(F)c(C(=O)N2Cc3c(C)c(-c4cc(F)c5c(c4C)CCCO5)c([C@H](OC(C)(C)C)C(=O)O)c(C)c3C2)c1` (atropisomer, axis not shown; (M)) [Example 179, (S)-2-(tert-butoxy)-2-((M)-2-(2-fluoro-5-methoxybenzoyl)-6-(8-fluoro-5-methylchroman-6-yl)-4,7-dimethylisoindolin-5-yl)acetic acid], for which the IC50 is 4 nM.

Consider `Cc1c(-c2c(C)c3c(c(C)c2[C@H](OC(C)(C)C)C(=O)O)CN(C(=O)c2ccc(F)c(Cl)c2)C3)cc(F)c2c1CCCO2` (atropisomer, axis not shown; (M)) [Example 171, (S)-2-(tert-butoxy)-2-((M)-2-(3-chloro-4-fluorobenzoyl)-6-(8-fluoro-5-methylchroman-6-yl)-4,7-dimethylisoindolin-5-yl)acetic acid], for which 2 nM corresponded to half-maximal inhibition (IC50).

In the case of `Cc1ccc(-c2c(C)c3c(c(C)c2[C@H](OC(C)(C)C)C(=O)O)CN(C(=O)N2CCCC(F)(F)C2)C3)cc1` [Example 66, (2S)-2-(tert-butoxy)-2-[2-(3,3-difluoropiperidine-1-carbonyl)-4,7-dimethyl-6-(4-methylphenyl)-2,3-dihydro-1H-isoindol-5-yl]acetic acid], inhibition was half-maximal at 6 nM (IC50).

Regarding `Cc1ccc(-c2c(C)c3c(c(C)c2[C@H](OC(C)(C)C)C(=O)O)CN(C(=O)c2cocn2)C3)cc1` [Example 272, (S)-2-(tert-butoxy)-2-(4,7-dimethyl-2-(oxazole-4-carbonyl)-6-(p-tolyl)isoindolin-5-yl)acetic acid], the IC50 came out at 86 nM.

Turning to `COc1c(F)cccc1C(=O)N1Cc2c(C)c(-c3cc(F)c4c(c3C)CCCO4)c([C@H](OC(C)(C)C)C(=O)O)c(C)c2C1` (atropisomer, axis not shown; (M)) [Example 195, (S)-2-(tert-butoxy)-2-((M)-2-(3-fluoro-2-methoxybenzoyl)-6-(8-fluoro-5-methylchroman-6-yl)-4,7-dimethylisoindolin-5-yl)acetic acid], the IC50 amounted to 3 nM.

For the molecule `Cc1c(-c2c(C)c3c(c(C)c2[C@H](OC(C)(C)C)C(=O)O)CN(C(=O)N2CCC(F)(F)CC2)C3)cc(F)c2c1CCCO2` (atropisomer, axis not shown; (M)) [Example 213, (S)-2-(tert-butoxy)-2-((M)-2-(4,4-difluoropiperidine-1-carbonyl)-6-(8-fluoro-5-methylchroman-6-yl)-4,7-dimethylisoindolin-5-yl)acetic acid], the IC50 amounted to 3 nM.

Consider `Cc1ccc(-c2c(C)c3c(c(C)c2[C@H](OC(C)(C)C)C(=O)O)CN(CC(=O)N2CCCCC2)C3)cc1` [Example 127, (S)-2-(tert-butoxy)-2-(4,7-dimethyl-2-(2-oxo-2-(piperidin-1-yl)ethyl)-6-(p-tolyl)isoindolin-5-yl)acetic acid], for which half-maximal inhibition (IC50) required 318 nM.

Take `Cc1ccc(-c2c(C)c3c(c(C)c2[C@H](OC(C)(C)C)C(=O)O)CN(Cc2cccc(Cl)c2)C3)cc1` [Example 45, (2S)-2-(tert-butoxy)-2-{2-[(3-chlorophenyl)methyl]-4,7-dimethyl-6-(4-methylphenyl)-2,3-dihydro-1H-isoindol-5-yl}acetic acid]: the IC50 was 43 nM.

`Cc1ccc(-c2c(C)c3c(c(C)c2[C@H](OC(C)(C)C)C(=O)O)CN(C(=O)N2CCC(F)(F)C2)C3)cc1` [Example 68, (2S)-2-(tert-butoxy)-2-[2-(3,3-difluoropyrrolidine-1-carbonyl)-4,7-dimethyl-6-(4-methylphenyl)-2,3-dihydro-1H-isoindol-5-yl]acetic acid] yielded an IC50 of 8 nM.

Regarding `Cc1ccc(-c2c(C)c3c(c(C)c2C(OC(C)(C)C)C(=O)O)CN(C(=O)OCc2ccccc2)C3)cc1` (stereo not drawn) [Example 17, 2-(2-((Benzyloxy)carbonyl)-4,7-dimethyl-6-(p-tolyl)isoindolin-5-yl)-2-(tert-butoxy)acetic acid], the IC50 is 1280 nM.

`Cc1ccc(C)c(C(=O)N2Cc3c(C)c(-c4cc(F)c5c(c4C)CCCO5)c([C@H](OC(C)(C)C)C(=O)O)c(C)c3C2)c1` (atropisomer, axis not shown; (M)) [Example 157, (S)-2-(tert-butoxy)-2-(2-(2,5-dimethylbenzoyl)-6-((M)-8-fluoro-5-methylchroman-6-yl)-4,7-dimethylisoindolin-5-yl)acetic acid]: the IC50 turned out to be 3 nM.

Molecule `Cc1c(-c2c(C)c3c(c(C)c2[C@H](OC(C)(C)C)C(=O)O)CN(C(=O)c2cccc(F)c2)C3)cc(F)c2c1NCCO2` (atropisomer, axis not shown; (M)) [Example 301, (S)-2-(tert-butoxy)-2-(6-((M)-8-fluoro-5-methyl-3,4-dihydro-2H-benzo[b][1,4]oxazin-6-yl)-2-(3-fluorobenzoyl)-4,7-dimethylisoindolin-5-yl)acetic acid] registered an IC50 of 5 nM.

The molecule `Cc1c(-c2c(C)c3c(c(C)c2[C@H](OC(C)(C)C)C(=O)O)CN(C(=O)c2ccc(Cl)cc2)C3)cc(F)c2c1CCCO2` (atropisomer, axis not shown; (M)) [Example 198, (S)-2-(tert-butoxy)-2-((M)-2-(4-chlorobenzoyl)-6-(8-fluoro-5-methylchroman-6-yl)-4,7-dimethylisoindolin-5-yl)acetic acid] showed an IC50 of 5 nM.

`Cc1ccc(-c2c(C)c3c(c(C)c2[C@H](OC(C)(C)C)C(=O)O)CN(C(=O)c2cc(F)ccc2C)C3)cc1` [Example 121, (S)-2-(tert-butoxy)-2-(2-(5-fluoro-2-methylbenzoyl)-4,7-dimethyl-6-(p-tolyl)isoindolin-5-yl)acetic acid] gave an IC50 of 4 nM.

In turn, `Cc1c(-c2c(C)c3c(c(C)c2[C@H](OC(C)(C)C)C(=O)O)CN(C(=O)N2CCCCC2)C3)ccc2c1NCCO2` [Example 319, (2S)-2-(tert-butoxy)-2-(4,7-dimethyl-6-(5-methyl-3,4-dihydro-2H-benzo[b][1,4]oxazin-6-yl)-2-(piperidine-1-carbonyl)isoindolin-5-yl)acetic acid] registered an IC50 of 4 nM.

As for `COc1cccc(C(=O)N2Cc3c(C)c(-c4ccc(C)cc4)c([C@H](OC(C)(C)C)C(=O)O)c(C)c3C2)c1` [Example 114, (S)-2-(tert-butoxy)-2-(2-(3-methoxybenzoyl)-4,7-dimethyl-6-(p-tolyl)isoindolin-5-yl)acetic acid], the IC50 was 5 nM.

For the molecule `Cc1c2c(c(C)c([C@H](OC(C)(C)C)C(=O)O)c1C1=CCC(C)(C)CC1)CN(C(=O)c1cccc3c1OCO3)C2` [Example 307, (S)-2-(2-(benzo[d][1,3]dioxole-4-carbonyl)-6-(4,4-dimethylcyclohex-1-en-1-yl)-4,7-dimethylisoindolin-5-yl)-2-(tert-butoxy)acetic acid], inhibition was half-maximal at 4 nM (IC50).

The same experiment, now with this note: MT-4 cells; luciferase/cell titer glo readout after 96 hours; 10 point dose response.
`Cc1ccc(-c2c(C)c3c(c(C)c2C(OC(C)(C)C)C(=O)O)CN(S(=O)(=O)c2cccc4ccccc24)C3)cc1` (stereo not drawn) [Example 5, 2-(tert-Butoxy)-2-(4,7-dimethyl-2-(naphthalen-1-ylsulfonyl)-6-(p-tolyl)isoindolin-5-yl)acetic acid]: half-maximal inhibition (IC50) required 42 nM.
